For 34 compounds, IC50 results are on record in patent US7902373B2 (Pfizer Inc, priority 2006, dated 2011).

A word on the IC50: it is the concentration at which inhibition is half-maximal.

The target in the experiment is human recombinant H-PGDS (Homo sapiens, UniProt O60760). Briefly: Fluorescence intensity h-PGDS TBA enzyme assay. Conditions: Examples up to 622 (and 3a, 3b). The format is biochemical.
human recombinant H-PGDS, sequence (O60760 whole entry): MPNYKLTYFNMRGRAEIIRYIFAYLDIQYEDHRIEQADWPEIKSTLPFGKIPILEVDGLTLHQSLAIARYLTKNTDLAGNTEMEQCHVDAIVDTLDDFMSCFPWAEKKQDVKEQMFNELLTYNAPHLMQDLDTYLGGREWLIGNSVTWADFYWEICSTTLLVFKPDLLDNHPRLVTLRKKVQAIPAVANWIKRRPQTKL

Take `Cc1cc(C)c(C#N)c(N2CCC(NC(=O)c3ccc(-c4cccc(F)c4)nc3)CC2)n1` [Example 69, N-[1-(3-Cyano-46-dimethylpyridin-2-yl)piperidin-4-yl]-6-(3-fluorophenyl)nicotinamide]: the IC50 stood at 1.21 nM. On to `N#Cc1ccc(C(F)(F)F)nc1N1CCC(NC(=O)c2ccc(-c3cccc(F)c3)nc2)CC1` [Example 70, N-{1-[3-Cyano-6-(trifluoromethyl)pyridin-2-yl]piperidin-4-yl}-6-(3-fluorophenyl)nicotinamide], for which the IC50 was 3.26 nM. The result for `Cc1csc2c(N3CCC(NC(=O)c4ccc(-c5cccc(F)c5)nc4)CC3)ncnc12` [Example 71, 6-(3-Fluorophenyl)-N-[1-(7-methylthieno[3,2-d]pyrimidin-4-yl)piperidin-4-yl]nicotinamide] reads 2.18 nM. In the case of `O=C(NC1CCN(c2ncccc2C(=O)NC2Cc3ccccc3C2)CC1)c1ccc(-c2cccc(F)c2)nc1` [Example 72, N-(2,3-Dihydro-1H-inden-2-yl)-2-[4-({[6-(3-fluorophenyl)pyridin-3-yl]carbonyl}amino)piperidin-1-yl]nicotinamide], the IC50 turned out to be 4.97 nM. `COCc1cc(N2CCC(NC(=O)c3ccc(-c4cccc(F)c4)nc3)CC2)nc(-c2csc(C)n2)n1` [Example 73, 6-(3-Fluorophenyl)-N-{1-[6-(methoxymethyl)-2-(2-methyl-13-thiazol-4-yl)pyrimidin-4-yl]piperidin-4-yl}nicotinamide]: the IC50 was 2.89 nM. For `O=C(NC1CCN(c2ncccc2C(=O)c2ccccn2)CC1)c1ccc(-c2cccc(F)c2)nc1` [Example 74, 6-(3-Fluorophenyl)-N-{1-[3-(pyridin-2-ylcarbonyl)pyridin-2-yl]piperidin-4-yl}nicotinamide], the IC50 came to 0.293 nM. As to `O=C(NC1CCN(c2ncccc2C(=O)c2nccs2)CC1)c1ccc(-c2cccc(F)c2)nc1` [Example 75, 6-(3-Fluorophenyl)-N-{1-[3-(1,3-thiazol-2-ylcarbonyl)pyridin-2-yl]piperidin-4-yl}nicotinamide], the IC50 was determined as 0.314 nM. The result for `CC(=O)c1cc(C#N)c(N2CCC(NC(=O)c3ccc(-c4cccc(F)c4)nc3)CC2)nc1C` [Example 76, N-[1-(5-Acetyl-3-cyano-6-methylpyridin-2-yl)piperidin-4-yl]-6-(3-fluorophenyl)nicotinamide] reads 1.35 nM; that for `N#Cc1ccccc1C(=O)c1cccnc1N1CCC(NC(=O)c2ccc(-c3cccc(F)c3)nc2)CC1` [Example 77, N-{1-[3-(2-Cyanobenzoyl)pyridin-2-yl]piperidin-4-yl}-6-(3-fluorophenyl)nicotinamide], 0.425 nM; that for `COC(=O)c1cnc(N)nc1N1CCC(NC(=O)c2ccc(-c3cccc(F)c3)nc2)CC1` [Example 78, Methyl 2-amino-4-[4-({[6-(3-fluorophenyl)pyridin-3-yl]carbonyl}amino)piperidin-1-yl]pyrimidine-5-carboxylate], 0.148 nM.

Take `O=C(NC1CCN(c2nccnc2Cc2ccccc2)CC1)c1ccc(-c2cccc(F)c2)nc1` [Example 79, N-[1-(3-Benzylpyrazin-2-yl)piperidin-4-yl]-6-(3-fluorophenyl)nicotinamide]: the IC50 worked out at 2.28 nM. The result for `CNC(=O)c1ccc(N2CCC(NC(=O)c3ccc(-c4cccc(F)c4)nc3)CC2)nn1` [Example 80, 6-[4-({[6-(3-Fluorophenyl)pyridin-3-yl]carbonyl}amino)piperidin-1-yl]-N-methylpyridazine-3-carboxamide] reads 0.408 nM; that for `CCN1CCCC1CNC(=O)c1ccc(N2CCC(NC(=O)c3ccc(-c4cccc(F)c4)nc3)CC2)nn1` (stereo not shown) [Example 81, N-[(1-Ethylpyrrolidin-2-yl)methyl]-6-[4-({[6-(3-fluorophenyl)pyridin-3-yl]carbonyl}amino)piperidin-1-yl]pyridazine-3-carboxamide], 0.947 nM; that for `CCCN(C)C(=O)c1ccc(N2CCC(NC(=O)c3ccc(-c4cccc(F)c4)nc3)CC2)nn1` [Example 82, 6-[4-({[6-(3-Fluorophenyl)pyridin-3-yl]carbonyl}amino)piperidin-1-yl]-N-methyl-N-propylpyridazine-3-carboxamide], 1.05 nM. On to `CCNC(=O)c1ccc(N2CCC(NC(=O)c3ccc(-c4cccc(F)c4)nc3)CC2)nn1` [Example 83, N-Ethyl-6-[4-({[6-(3-fluorophenyl)pyridin-3-yl]carbonyl}amino)piperidin-1-yl]pyridazine-3-carboxamide], for which the IC50 is 0.37 nM.

`O=C(NC1CCN(c2ccc(C(=O)NCCN3CCOCC3)nn2)CC1)c1ccc(-c2cccc(F)c2)nc1` [Example 84, 6-[4-({[6-(3-Fluorophenyl)pyridin-3-yl]carbonyl}amino)piperidin-1-yl]-N-(2-morpholin-4-ylethyl)pyridazine-3-carboxamide]: the IC50 is 0.635 nM. As to `O=C(NC1CCN(c2ccc(C(=O)Nc3ccon3)nn2)CC1)c1ccc(-c2cccc(F)c2)nc1` [Example 85, 6-[4-({[6-(3-Fluorophenyl)pyridin-3-yl]carbonyl}amino)piperidin-1-yl]-N-isoxazol-3-ylpyridazine-3-carboxamide], the IC50 came out at 0.72 nM.

Consider `Cc1noc(NC(=O)c2ccc(N3CCC(NC(=O)c4ccc(-c5cccc(F)c5)nc4)CC3)nn2)c1C` [Example 86, N-(3,4-Dimethylisoxazol-5-yl)-6-[4-({[6-(3-fluorophenyl)pyridin-3-yl]carbonyl}amino)piperidin-1-yl]pyridazine-3-carboxamide], for which the IC50 worked out at 0.876 nM. Take `CCN1CCN(C(=O)c2ccc(N3CCC(NC(=O)c4ccc(-c5cccc(F)c5)nc4)CC3)nn2)CC1` [Example 87, N-(1-{6-[(4-Ethylpiperazin-1-yl)carbonyl]pyridazin-3-yl}piperidin-4-yl)-6-(3-fluorophenyl)nicotinamide]: the IC50 stood at 0.538 nM. For `Cc1nn(C)c(C)c1NC(=O)c1ccc(N2CCC(NC(=O)c3ccc(-c4cccc(F)c4)nc3)CC2)nn1` [Example 89, 6-[4-({[6-(3-Fluorophenyl)pyridin-3-yl]carbonyl}amino)piperidin-1-yl]-N-(1,3,5-trimethyl-1H-pyrazol-4-yl)pyridazine-3-carboxamide], the IC50 is 0.365 nM. As for `CCC(CO)n1cnc2c(N3CCC(NC(=O)c4ccc(-c5cccc(F)c5)nc4)CC3)ncnc21` (stereo not shown) [Example 90, 6-(3-Fluorophenyl)-N-(1-{9-[1-(hydroxymethyl)propyl]-9H-purin-6-yl}piperidin-4-yl)nicotinamide], the IC50 is 0.305 nM.

For the compound `COc1ccc2oc(N3CCC(NC(=O)c4ccc(-c5cccc(F)c5)nc4)CC3)nc2c1` [Example 91, 6-(3-Fluorophenyl)-N-[1-(5-methoxy-13-benzoxazol-2-yl)piperidin-4-yl]nicotinamide], the IC50 worked out at 0.603 nM. Turning to `O=C(NC1CCN(c2nnnn2-c2ccc3c(c2)CCC3)CC1)c1ccc(-c2cccc(F)c2)nc1` [Example 92, N-{1-[1-(2,3-Dihydro-1H-inden-5-yl)-1H-tetrazol 5-yl]piperidin-4-yl}-6-(3-fluorophenyl)nicotinamide], the IC50 is 5.15 nM.

As for `C=CCC(C)(C)c1nc2c(N3CCC(NC(=O)c4ccc(-c5cccc(F)c5)nc4)CC3)ncnc2n1C` [Example 93, N-{1-[8-(1,1-Dimethylbut-3-en-1-yl)-9-methyl-9H-purin-6-yl]piperidin-4-yl}-6-(3-fluorophenyl)nicotinamide], the IC50 turned out to be 17.9 nM. Next, `O=C(NC1CCN(c2nnnn2-c2ccccc2F)CC1)c1ccc(-c2cccc(F)c2)nc1` [Example 94, 6-(3-Fluorophenyl)-N-{1-[1-(2-fluorophenyl)-1H-tetrazol-5-yl]piperidin-4-yl}nicotinamide]: 0.426 nM.

For `Cc1ccc(-n2nnnc2N2CCC(NC(=O)c3ccc(-c4cccc(F)c4)nc3)CC2)cc1` [Example 95, 6-(3-Fluorophenyl)-N-{1-[1-(4-methylphenyl)-1H-tetrazol-5-yl]piperidin-4-yl}nicotinamide], the IC50 was 0.764 nM. Turning to `COc1ccccc1Cn1nnnc1N1CCC(NC(=O)c2ccc(-c3cccc(F)c3)nc2)CC1` [Example 96, 6-(3-Fluorophenyl)-N-{1-[1-(2-methoxybenzyl)-1H-tetrazol-5-yl]piperidin-4-yl}nicotinamide], the IC50 stood at 1.19 nM.

On to `CC(C)n1nnnc1N1CCC(NC(=O)c2ccc(-c3cccc(F)c3)nc2)CC1` [Example 97, 6-(3-Fluorophenyl)-N-[1-(1-isopropyl-1H-tetrazol-5-yl)piperidin-4-yl]nicotinamide], for which the IC50 is 0.319 nM. For `CCOC(=O)c1cccc(-n2nnnc2N2CCC(NC(=O)c3ccc(-c4cccc(F)c4)nc3)CC2)c1` [Example 98, Ethyl 3-{5-[4-({[6-(3-fluorophenyl)pyridin-3-yl]carbonyl}amino)piperidin-1-yl]-1H-tetrazol-1-yl}benzoate], the concentration for half-maximal inhibition (IC50) turned out to be 3.7 nM. As to `O=C(NC1CCN(c2nnnn2CC2CC2)CC1)c1ccc(-c2cccc(F)c2)nc1` [Example 99, N-{1-[1-(Cyclopropylmethyl)-1H-tetrazol-5-yl]piperidin-4-yl}-6-(3-fluorophenyl)nicotinamide], the IC50 was found to be 2.08 nM. Consider `CC(C)OC(=O)Cn1nnnc1N1CCC(NC(=O)c2ccc(-c3cccc(F)c3)nc2)CC1` [Example 100, Isopropyl {5-[4-({[6-(3-fluorophenyl)pyridin-3-yl]carbonyl}amino)piperidin-1-yl]-1H-tetrazol-1-yl}acetate], for which the IC50 is 1.53 nM.

Take `COCC(C)n1nnnc1N1CCC(NC(=O)c2ccc(-c3cccc(F)c3)nc2)CC1` (stereo not shown) [Example 101, 6-(3-fluorophenyl)-N-{1-[1-(2-methoxy-1-methylethyl)-1H-tetrazol-5-yl]piperidin-4-yl}nicotinamide]: the IC50 was found to be 1.4 nM. On to `N#Cc1ccc(Cn2nnnc2N2CCC(NC(=O)c3ccc(-c4cccc(F)c4)nc3)CC2)cc1` [Example 102, N-{1-[1-(4-Cyanobenzyl)-1H-tetrazol-5-yl]piperidin-4-yl}-6-(3-fluorophenyl)nicotinamide], for which the IC50 came out at 0.943 nM. Next, `CCOc1cccc(-n2nnnc2N2CCC(NC(=O)c3ccc(-c4cccc(F)c4)nc3)CC2)c1` [Example 103, N-{1-[1-(3-Ethoxyphenyl)-1H-tetrazol-5-yl]piperidin-4-yl}-6-(3-fluorophenyl)nicotinamide]: 2.15 nM.
